Results as given in article PMC4750852, “Synergistic Malaria Parasite Killing by Two Types of Plasmodial Surface Anion Channel Inhibitors” (PLoS ONE, 2016).
Read-outs that look alike come from different tables or passages of the source.

Tests used:
[1] = test system: P. knowlesi channel (PSAC); experiment: Osmotic lysis kinetics in rhesus erythrocytes infected with P. knowlesi; assay type: cell-based; conditions: 3 μM inhibitor with 200 μM furosemide
Procedure: (§1) Enriched cells were washed in HBS (150 mM NaCl, 20 mM Na-HEPES, 0.1 mg/mL BSA, pH 7.5) and used for continuous tracking of osmotic lysis in permeant solutes as described. PSAC-mediated uptake was initiated by resuspension of cells in osmotic lysis solutions containing 20 mM Na-HEPES, 0.1 mg/mL BSA with permeant solute or salt added at 280–290 mOsm; where present, inhibitors were added from concentrated stocks in DMSO. Osmotic swelling and lysis at 37°C was then kinetically tracked by recording the transmittance of 700 nm light through the 1 mL cell suspension (Beckman Coulter spectrophotometer, Indianapolis, IN). Regular manual resuspension was used to minimize the effects of cell settling. Solute permeability was calculated using locally developed script as described. The data are presented with normalization to inhibitor-free controls included in each experiment.

[2] = test system: plasmodial surface anion channel (PSAC), residual transport; experiment: Osmotic lysis kinetics, residual PhTMA+ transport in infected erythrocytes (with a primary component inhibitor present); assay type: cell-based, Plasmodium falciparum
Procedure: as §1

[3] = test system: P. falciparum; experiment: Parasite growth inhibition, SYBR Green I assay, 72 h; assay type: cell-based, Plasmodium falciparum; conditions: for Improvement in growth IC50 in PGIM relative to standard medium: ratio of IC50 standard RPMI 1640-based medium to PGIM, present and prior studies [2]
Procedure: Efficacy of inhibitors against in vitro parasite growth was evaluated with the SYBR Green I assay for parasite nucleic acid as described. […] These cultures were then lysed (20 mM Tris, 10 mM EDTA, 0.016% saponin, 1.6% Triton X-100, pH 7.5) and incubated for 45 min with SYBR Green I nucleic acid stain at a 5000-fold dilution (Invitrogen, Waltham, MA). The mean fluorescence of replicate wells (excitation, 485 nm; emission, 528 nm) was used to quantify parasite DNA content and growth after normalization to in-plate controls with and without 20 μM chloroquine (100 and 0% growth inhibition, respectively).

[4] = test system: plasmodial surface anion channel (PSAC), residual transport; experiment: Osmotic lysis kinetics, residual proline transport with 200 μM furosemide; assay type: cell-based, Plasmodium falciparum; conditions: added to 200 μM furosemide; maximal inhibition less than with PhTMA+
Procedure: as §1, with “Transport measurements used synchronous trophozoite-stage infected erythrocytes enriched from P. falciparum cultures by Percoll/sorbitol separation to > 95% parasitemia. Enriched” for “Enriched”

[5] = test system: plasmodial surface anion channel (PSAC), primary transport; experiment: Osmotic lysis kinetics, primary transport (sorbitol / alanine uptake) in infected erythrocytes; assay type: cell-based, Plasmodium falciparum
Procedure: as §1

[6] = test system: P. falciparum; experiment: Fixed-ratio combination growth inhibition, isobologram analysis; assay type: cell-based, Plasmodium falciparum; conditions: combination of 0.82 μM cpd 1 and 0.35 μM PRT1-20
Procedure: Efficacy of inhibitors against in vitro parasite growth was evaluated with the SYBR Green I assay for parasite nucleic acid as described. […] These cultures were then lysed (20 mM Tris, 10 mM EDTA, 0.016% saponin, 1.6% Triton X-100, pH 7.5) and incubated for 45 min with SYBR Green I nucleic acid stain at a 5000-fold dilution (Invitrogen, Waltham, MA). The mean fluorescence of replicate wells (excitation, 485 nm; emission, 528 nm) was used to quantify parasite DNA content and growth after normalization to in-plate controls with and without 20 μM chloroquine (100 and 0% growth inhibition, respectively). Growth inhibition resulting from combinations of PSAC inhibitors was similarly evaluated using fixed ratios of the two compounds [28]. For each experiment, […] of the two inhibitors (10:0, 9:1, …, 1:9, 0:10) were prepared based on the optimal concentrations of each in isolated growth inhibition dose responses. For each ratio, serial dilutions were used to generate dose responses and permit calculation of IC50 values by interpolation; in each experiment, matched dose responses were included for each compound in isolation. […] For each inhibitor combination, synergistic action was quantified using the ∑FIC50 (sum of fractional inhibitor concentrations producing 50% block); values of this parameter below 0.7 indicate strong synergistic action.

CCOc1ccc(C(=O)Nc2ccc(-c3nn4c(C)nnc4s3)cc2)cc1 [PRT-1]
Effect on residual PhTMA+ transport via the P. knowlesi channel [1]: inhibit | IC50 ([2]; PhTMA-Cl plus 100 nM ISG-21, read-out: K0.5 for block of residual PhTMA+ transport): 0.044 µM | IC50 ([2]; PhTMA-Cl plus 2 μM TP-52, read-out: K0.5 for block of residual PhTMA+ transport): 0.056 µM | IC50 ([2]; in combination with 200 μM furosemide, mean ± S.E.M., read-out: K0.5 for block of residual PhTMA+ uptake): 0.19 ± 0.003 µM | Improvement in growth IC50 in PGIM relative to standard medium [3]: did not show measurable changes in efficacy in PGIM | Effect on residual proline transport [4]: clearly reduced proline transport further | IC50 ([5]; sorbitol without furosemide, mean ± S.E.M., read-out: K0.5 against sorbitol uptake (primary channel route)): 0.59 ± 0.043 µM

CCCCOc1ccc(C(=O)Nc2ccc(-c3nn4c(C)nnc4s3)cc2)cc1 [PRT1-20]
Activity against residual PhTMA+ transport compared to PRT-1 ([2]; PhTMA+ with 200 μM furosemide, dose response): improved activity | Parasite growth inhibition, single compound ([3]; applied individually, standard RPMI-1640 based media): low micromolar concentrations | Action against the primary transport component compared to PRT-1 ([5]; sorbitol without furosemide, dose response): significantly reduced action | Concentration in the combination as share of the compound's single drug IC50 [6]: approximately 10%

Cc1ccc(C)c(N2CCN(S(=O)(=O)c3ccc(-c4ccc(=O)[nH]n4)s3)CC2)c1 [ISG-21, reference compound]
Fold less effective against residual PhTMA+ transport than against sorbitol uptake ([2]; comparison of K0.5 values, PhTMA+ + 200 μM furosemide vs sorbitol): up to 3000 fold | IC50 ([3]; PGIM): 0.0173 ± 0.001 µM | IC50 ([3]; PGIM with isoleucine increased to 34 μM): 1.25 ± 0.1 µM | Improvement in growth IC50 in PGIM relative to standard medium [3]: significantly improved activity in PGIM | Effect on sorbitol uptake at selected concentration ([5]; 100 nM ISG-21, 2 μM TP-52, residual uptake of PhTMA+ remains): abolish sorbitol uptake

O=C(COc1ccc2ccccc2c1)Nc1cccc(-c2nc3ncccc3o2)c1 [PRT-3]
Effect on residual PhTMA+ transport via the P. knowlesi channel [1]: inhibit | Improvement in growth IC50 in PGIM relative to standard medium [3]: did not show measurable changes in efficacy in PGIM
